Laboratory results taken from patent publication US20070021435A1, “AMINOPYRIMIDINES AS KINASE MODULATORS” (priority 2005, published 2007).

target: T1, TrkB (Homo sapiens, UniProt Q16620); experiment: TrkB fluorescence polarization kinase assay; format: biochemical; conditions: 50 nM TrkB, 150 uM ATP, 30 minutes; uncertainty ±10%
T1 construct: purchased Upstate 14-507M
Method: The compounds of the present invention are also specific inhibitors of TrkB. Selection of preferred compounds of Formula I for use as TrkB inhibitors was performed in the following manner. The TrkB assay utilized the fluorescein-labeled phosphopeptide and the anti-phosphotyrosine antibody included in the Panvera Phospho-Tyrosine Kinase Kit (Green) supplied by Invitrogen. When TrkB phosphorylated poly Glu4Tyr, the fluorescein-labeled phosphopeptide was displaced from the anti-phosphotyrosine antibody by the phosphorylated poly Glu4Tyr, thus decreasing the FP value. The TrkB kinase reaction was incubated at room temperature for 30 minutes under the following conditions: 50 nM TrkB (Upstate, catalog # 14-507M), 20 ug/mL poly Glu4Tyr, 150 uM ATP, 5 mM MgCl2, 1% compound in DMSO. The kinase reaction was stopped with the addition of EDTA. The fluorescein-labeled phosphopeptide and the anti-phosphotyrosine antibody were added and incubated for 30 minutes at room temperature. Data points were an average of triplicate samples.

T1 sequence (Q16620 526-822 limits assumed): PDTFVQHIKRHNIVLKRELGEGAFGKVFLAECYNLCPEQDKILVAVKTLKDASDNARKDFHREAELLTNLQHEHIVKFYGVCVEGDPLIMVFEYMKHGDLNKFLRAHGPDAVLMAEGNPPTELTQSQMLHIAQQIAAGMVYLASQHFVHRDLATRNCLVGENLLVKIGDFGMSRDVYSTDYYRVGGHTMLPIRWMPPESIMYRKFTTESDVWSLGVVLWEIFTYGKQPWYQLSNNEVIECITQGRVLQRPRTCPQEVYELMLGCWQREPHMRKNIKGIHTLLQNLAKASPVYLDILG

Row | IC50 [nM] | SMILES
1 | 800 | CO/N=C/c1c(N)ncnc1N1CCN(C(=O)Nc2ccc(OC(C)C)cc2)CC1 [Example 1, 4-[6-Amino-5-(methoxyimino-methyl)-pyrimidin-4-yl]-piperazine-1-carboxylic acid (4-isopropoxy-phenyl)-amide]
2 | 10100 | CC(C)Oc1ccc(NC(=O)N2CCN(c3ncnc(N)c3/C=N/OCCN3CCOCC3)CC2)cc1 [Example 2, 4-{6-Amino-5-[(2-morpholin-4-yl-ethoxyimino)-methyl]-pyrimidin-4-yl}-piperazine-1-carboxylic acid (4-isopropoxy-phenyl)-amide]
3 | 1300 | CC(C)Oc1ccc(NC(=O)N2CCN(c3ncnc(N)c3/C=N/OCCCO)CC2)cc1 [Example 3, 4-{6-Amino-5-[(3-hydroxy-propoxyimino)-methyl]-pyrimidin-4-yl}-piperazine-1-carboxylic acid (4-isopropoxy-phenyl)-amide]
4 | 4000 | CO/N=C/c1c(N)ncnc1N1CCN(C(=O)Nc2ccc(N3CCCCC3)cc2)CC1 [Example 4, 4-[6-Amino-5-(methoxyimino-methyl)-pyrimidin-4-yl]-piperazine-1-carboxylic acid (4-piperidin-1-yl-phenyl)-amide]
5 | 8400 | CO/N=C/c1c(N)ncnc1N1CCN(C(=O)Nc2ccc(N3CCOCC3)cc2)CC1 [Example 5, 4-[6-Amino-5-(methoxyimino-methyl)-pyrimidin-4-yl]-piperazine-1-carboxylic acid (4-morpholin-4-yl-phenyl)-amide]
6 | 500 | CO/N=C/c1c(N)ncnc1N1CCN(C(=O)Cc2ccc(C(C)C)cc2)CC1 [Example 7, 4-Amino-6-{4-[2-(4-isopropyl-phenyl)-acetyl]-piperazin-1-yl}-pyrimidine-5-carbaldehyde O-methyl-oxime]
7 | 1100 | CO/N=C/c1c(N)ncnc1N1CCN(C(=O)Nc2ccc(C(C)C)cc2)CC1 [Example 8, 4-[6-Amino-5-(methoxyimino-methyl)-pyrimidin-4-yl]-piperazine-1-carboxylic acid (4-isopropyl-phenyl)-amide]
8 | 600 | CCO/N=C/c1c(N)ncnc1N1CCN(C(=O)Nc2ccc(OC(C)C)cc2)CC1 [Example 9, 4-[6-Amino-5-(ethoxyimino-methyl)-pyrimidin-4-yl]-piperazine-1-carboxylic acid (4-isopropoxy-phenyl)-amide (anti-configuration for —C═N—O—)]
9 | 11000 | CCO/N=C\c1c(N)ncnc1N1CCN(C(=O)Nc2ccc(OC(C)C)cc2)CC1 [Example 10, 4-[6-Amino-5-(ethoxyimino-methyl)-pyrimidin-4-yl]-piperazine-1-carboxylic acid (4-isopropoxy-phenyl)-amide (syn-configuration for —C═N—O—)]
10 | 2600 | CCO/N=C/c1c(N)ncnc1N1CCN(C(=O)Nc2ccc(N3CCCCC3)cc2)CC1 [Example 11, 4-[6-Amino-5-(ethoxyimino-methyl)-pyrimidin-4-yl]-piperazine-1-carboxylic acid (4-piperidin-1-yl-phenyl)-amide]
11 | 2200 | CCO/N=C/c1c(N)ncnc1N1CCN(C(=O)Cc2ccc(C(C)C)cc2)CC1 [Example 13, 4-Amino-6-{4-[2-(4-isopropyl-phenyl)-acetyl]-piperazin-1-yl}-pyrimidine-5-carbaldehyde O-ethyl-oxime (anti-configuration for —C═N—O—)]
12 | 1400 | CCO/N=C\c1c(N)ncnc1N1CCN(C(=O)Cc2ccc(C(C)C)cc2)CC1 [Example 14, 4-Amino-6-{4-[2-(4-isopropyl-phenyl)-acetyl]-piperazin-1-yl}-pyrimidine-5-carbaldehyde O-ethyl-oxime (syn-configuration for —C═N—O—)]
13 | 7760 | CCO/N=C/c1c(N)ncnc1N1CCN(C(=O)Nc2ccc(N3CCOCC3)cc2)CC1 [Example 15, 4-[6-Amino-5-(ethoxyimino-methyl)-pyrimidin-4-yl]-piperazine-1-carboxylic acid (4-morpholin-4-yl-phenyl)-amide]
14 | 11100 | CC(C)Oc1ccc(NC(=O)N2CCN(c3ncnc(N)c3/C=N/OCC(=O)N3CCOCC3)CC2)cc1 [Example 16, 4-{6-Amino-5-[(2-morpholin-4-yl-2-oxo-ethoxyimino)-methyl]-pyrimidin-4-yl}-piperazine-1-carboxylic acid (4-isopropoxy-phenyl)-amide]
15 | 800 | CO/N=C/c1c(N)ncnc1N1CCN(C(=O)Nc2ccc(OC3CCCC3)nc2)CC1 [Example 17, 4-[6-Amino-5-(methoxyimino-methyl)-pyrimidin-4-yl]-piperazine-1-carboxylic acid (6-cyclopentyloxy-pyridin-3-yl)-amide]
16 | 2600 | CO/N=C/c1c(N)ncnc1N1CCN(C(=O)Nc2ccc(N3CCCC3)cc2)CC1 [Example 18, 4-[6-Amino-5-(methoxyimino-methyl)-pyrimidin-4-yl]-piperazine-1-carboxylic acid (4-pyrrolidin-1-yl-phenyl)-amide]
17 | 1680 | CO/N=C/c1c(N)ncnc1N1CCN(C(=O)Nc2ccc(C3CCCCC3)cc2)CC1 [Example 19, 4-[6-Amino-5-(methoxyimino-methyl)-pyrimidin-4-yl]-piperazine-1-carboxylic acid (4-cyclohexyl-phenyl)-amide]
18 | 15600 | CO/N=C/c1c(N)ncnc1N1CCN(C(=O)Nc2ccc(Cl)cc2)CC1 [Example 20, 4-[6-Amino-5-(methoxyimino-methyl)-pyrimidin-4-yl]-piperazine-1-carboxylic acid (4-chloro-phenyl)-amide]
19 | 7400 | CO/N=C/c1c(N)ncnc1N1CCN(C(=O)Nc2ccc(Oc3ccccc3)cc2)CC1 [Example 21, 4-[6-Amino-5-(methoxyimino-methyl)-pyrimidin-4-yl]-piperazine-1-carboxylic acid (4-phenoxy-phenyl)-amide]

Row | SMILES | IC50 [nM]
20 | CO/N=C/c1c(N)ncnc1N1CCN(C(=O)Nc2ccc(OC3CCC3)nc2)CC1 [Example 6, 4-[6-Amino-5-(methoxyimino-methyl)-pyrimidin-4-yl]-piperazine-1-carboxylic acid (6-cyclobutoxy-pyridin-3-yl)-amide] | 3500
21 | CCO/N=C/c1c(N)ncnc1N1CCN(C(=O)Nc2ccc(OC3CCC3)nc2)CC1 [Example 12, 4-[6-Amino-5-(ethoxyimino-methyl)-pyrimidin-4-yl]-piperazine-1-carboxylic acid (6-cyclobutoxy-pyridin-3-yl)-amide] | 1600

target: T2, isolated kinase domain of the human c-kit receptor (Homo sapiens, UniProt P10721); experiment: c-Kit fluorescence polarization kinase assay; format: biochemical; conditions: 1 nM c-kit, 50 uM ATP, 45 minutes; uncertainty ±10%
T2 construct: isolated kinase domain of the human c-kit receptor; purchased ProQinase lot SP005
Method: The compounds of the present invention are also specific inhibitors of c-Kit. Selection of preferred compounds of Formula I for use as c-Kit inhibitors was performed in the following manner using an in vitro kinase assay to measure inhibition of the isolated kinase domain of the human c-kit receptor in a fluorescence polarization (FP) protocol. The c-kit assay utilized the fluorescein-labeled phosphopeptide and the anti-phosphotyrosine antibody included in the Panvera Phospho-Tyrosine Kinase Kit (Green) supplied by Invitrogen. When c-kit phosphorylated the poly Glu4Tyr, the fluorescein-labeled phosphopeptide was displaced from the anti-phosphotyrosine antibody by the phosphorylated poly Glu4Tyr, thus decreasing the FP value. The c-kit kinase reaction was incubated at room temperature for 45 minutes under the following conditions: 1 nM c-kit (ProQinase, lot SP005), 100 ug/mL poly Glu4Tyr, 50 uM ATP, 5 mM MgCl2, 1 mM DTT, 0.01% Tween-20, 1% DMSO or compound in […], pH 7.5. The kinase reaction was stopped with the addition of EDTA. The fluorescein-labeled phosphopeptide and the anti-phosphotyrosine antibody were added and incubated for 30 minutes at room temperature and fluorescence polarization was read. Data points were an average of triplicate samples.

T2 sequence (P10721 589-937 limits assumed): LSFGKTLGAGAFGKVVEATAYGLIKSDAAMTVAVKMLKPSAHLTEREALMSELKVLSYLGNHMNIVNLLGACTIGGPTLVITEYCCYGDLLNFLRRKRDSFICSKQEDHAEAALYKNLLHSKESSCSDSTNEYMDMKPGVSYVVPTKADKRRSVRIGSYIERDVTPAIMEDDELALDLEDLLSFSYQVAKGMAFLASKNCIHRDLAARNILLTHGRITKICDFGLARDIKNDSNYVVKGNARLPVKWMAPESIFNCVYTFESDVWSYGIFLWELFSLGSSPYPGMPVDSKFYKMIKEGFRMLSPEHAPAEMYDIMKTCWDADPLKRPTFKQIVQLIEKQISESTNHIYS

Row | IC50 [nM] | SMILES
22 | 10.5 | CO/N=C/c1c(N)ncnc1N1CCN(C(=O)Nc2ccc(OC(C)C)cc2)CC1 [Example 1, 4-[6-Amino-5-(methoxyimino-methyl)-pyrimidin-4-yl]-piperazine-1-carboxylic acid (4-isopropoxy-phenyl)-amide]
23 | 26 | CC(C)Oc1ccc(NC(=O)N2CCN(c3ncnc(N)c3/C=N/OCCN3CCOCC3)CC2)cc1 [Example 2, 4-{6-Amino-5-[(2-morpholin-4-yl-ethoxyimino)-methyl]-pyrimidin-4-yl}-piperazine-1-carboxylic acid (4-isopropoxy-phenyl)-amide]
24 | 5.1 | CCO/N=C/c1c(N)ncnc1N1CCN(C(=O)Nc2ccc(N3CCCCC3)cc2)CC1 [Example 11, 4-[6-Amino-5-(ethoxyimino-methyl)-pyrimidin-4-yl]-piperazine-1-carboxylic acid (4-piperidin-1-yl-phenyl)-amide]
